In patent publication US4837371A, “Process for concentration of an aqueous solution of amino acid” (Mitsui Toatsu Chemicals, Inc., priority 1986, dated 1989):
Read-outs that look alike come from different tables or passages of the source.

Assays:
[1] = cited from earlier work; for solubility change with alcohol (in words): alcohol present in aqueous solution; for solubility in water (in words): at the isoelectric point
[2] = solubility of L-tryptophan in an ethanol-aqueous solution (Referential Example 1); assay type: physicochemical; conditions: pH 5.89, 20° to 75° C.
Procedure: The pH of the aqueous solution was adjusted to the isoelectric point (5.89), and the aqueous solution was prepared from distilled water and reagent grade ethanol. In FIG. 1, letters a, b, c and d represent the solubility curves of L-tryptophan for the ethanol solution of different compositions shown below. […]
a: Ethanol: 0 Distilled water: 100 (parts by volume) b: Ethanol: 30 Distilled water: 70 c: Ethanol: 50 Distilled water: 50 d: Ethanol: 70 Distilled water: 30

[3] = acid dissociation constant; listed as tryptophane; cited from earlier work

Row | SMILES | solubility change with alcohol (in words) [1] | solubility in water (in words) [1] | further results
1 | N[C@@H](Cc1c[nH]c2ccccc12)C(=O)O [L-tryptophan] | increase in solubility | sparingly soluble in water at the isoelectric point | solubility by adjustment of pH only ([1]; pH not less than 11 or not more than 2): 8 to 10 wt. %; increase of solubility on raising solution temperature ([1]; solution temperature raised to 60° C.): ≤ 2%; solubility in water (in words) ([1]; listed as tryptophane): very low solubility in water; solubility, temperature dependence [2]: increases as the temperature goes up from 20 °C to 75 °C; pK1 [3]: 2.3
2 | CSCC[C@H](N)C(=O)O [methionine] |  | sparingly soluble in water at the isoelectric point | 
3 | C[C@H](N)C(=O)O [alanine] | decrease in solubility |  | 
4 | NCCCC[C@H](N)C(=O)O [lysine] |  | highly soluble in water | 
5 | N[C@@H](Cc1ccccc1)C(=O)O [phenylalanine] | increase in solubility |  | 
6 | N[C@@H](CSSC[C@H](N)C(=O)O)C(=O)O [cystine] |  | sparingly soluble in water at the isoelectric point | 
